Measured values reported in patent US20230052298A1, “LACTIC ACID BACTERIUM FERMENTATION PROMOTER” (MEIJI CO., LTD., priority 2019, published 2023).

Tests used:
[1] = test system: L. salivarius; assay: Test Example 5: organic acid concentrations after fermentation; format: cell-based, Lactobacillus salivarius; conditions: 1 mM added
Procedure: (§1) The measurement of the organic acid concentration after the completion of fermentation was carried out as follows. An aliquot of 0.4 g of the fermentate obtained (fermented milk) was diluted by 2-fold with pure water, 20 μL of Carrez's Reagent I (53.5% (w/v) zinc sulfate) was added thereto and the mixture was vortexed, and 20 μl of Carrez's Reagent II (17.2% (w/v) potassium ferrocyanide) was added thereto and the mixture was vortexed. The resulting mixture was centrifuged at 4° C., 20620 g for 10 minutes, and the supernatant was filtered through a 0.22 μm filter and the filtrate was analyzed under the conditions shown in Table 2. [table] The measurement of the organic acid concentration after the completion of fermentation by L. rhamnosus and L. salivarius in Test Example 3 or 4 was carried out in the same manner as in Test Example 2-1. The addition of malic acid or fumaric acid promoted production of succinic acid by L. rhamnosus and L. salivarius.

[2] = test system: L. delbrueckii subsp. bulgaricus 2038; assay: Test Example 2-1: organic acid concentrations after fermentation (HPLC); format: cell-based, Lactobacillus delbrueckii subsp. bulgaricus; conditions: strain 2038
Procedure: The fermentation was carried out using a fermentation medium (raw material milk). The fermentation medium was prepared by adding formic acid to the 10% reduced skim milk medium so as to give a final concentration of 1 mM, and then sterilizing the mixture at 95° C., and was used. […] In the above fermentation medium, a lactic acid bacterial starter of […] was inoculated at 0.5% (with respect to the amount of fermentation medium), statically cultured at 40° C., and fermented. The fermentation time was the time required for the medium to reach pH 4.6. The measurement of the organic acid concentration after the completion of fermentation was carried out as follows. An aliquot of 0.4 g of the fermentate obtained (fermented milk) was diluted by 2-fold with pure water, 20 μL of Carrez's Reagent I (53.5% (w/v) zinc sulfate) was added thereto and the mixture was vortexed, and 20 μl of Carrez's Reagent II (17.2% (w/v) potassium ferrocyanide) was added thereto and the mixture was vortexed. The resulting mixture was centrifuged at 4° C., 20620 g for 10 minutes, and the supernatant was filtered through a 0.22 μm filter and the filtrate was analyzed under the conditions shown in Table 2.

[3] = test system: L. delbrueckii subsp. bulgaricus 2038; assay: Test Example 2-1: fermentation time versus concentration of malic acid or fumaric acid; format: cell-based, Lactobacillus delbrueckii subsp. bulgaricus; conditions: L. bulgaricus 2038; from Tables 3 and 4
Procedure: The fermentation was carried out using a fermentation medium (raw material milk). The fermentation medium was prepared by adding formic acid to the 10% reduced skim milk medium so as to give a final concentration of 1 mM, and then sterilizing the mixture at 95° C., and was used. […] In the above fermentation medium, a lactic acid bacterial starter of […] was inoculated at 0.5% (with respect to the amount of fermentation medium), statically cultured at 40° C., and fermented. The fermentation time was the time required for the medium to reach pH 4.6.

[4] = test system: L. rhamnosus; assay: Test Example 5: organic acid concentrations after fermentation; format: cell-based, Lactobacillus rhamnosus; conditions: 1 mM added
Procedure: as §1

[5] = test system: Lactobacillus delbrueckii subsp. bulgaricus; assay: Test Example 8: organic acid concentration in fermentate at completion of fermentation, inosinic acid medium; format: cell-based; conditions: 1 mM additive, 1 mM inosinic acid medium
Procedure: (§2) The strains shown in Tables 13 and 14 were precultured in the preculture medium and then used. The activation medium used was a 10 mass % reduced skim milk medium containing 0.1 mass % yeast extract, sterilized at 121° C. for 7 minutes. Here, the 10 mass % reduced skim milk medium is a 10 mass % aqueous solution of skim milk powder (fat 1 mass %, protein 34 mass %, lactose 54 mass %, ash 8 mass %, non-fat milk solid 96 mass %) (manufactured by Meiji Co., Ltd.) (in the above medium, lactose 5.4 mass %, non-fat milk solid 9.6 mass %). Frozen bacteria were added to the above-mentioned activation medium in an amount of 0.1 mass % (with respect to the amount of the activation medium) and statically cultured at 37° C. for 16 hours to obtain an activation solution. An aliquot of 0.1 mass % of the activation solution obtained (with respect to the amount of activation medium) was added to another activation medium, and the mixture was allowed to stand at 37° C. for 16 hours to obtain a lactic acid bacterial starter. Then, fermentation was carried out using a fermentation medium as raw material milk. The fermentation medium was prepared by adding inosinic acid to the 10 mass % reduced skim milk medium so as to give a final concentration of 1 mM, and then sterilizing the mixture at 95° C., and was used. […] The pH of the fermentation medium was about 6.4. The lactic acid bacterial starter of each strain obtained above was inoculated into the fermentation medium in an amount of 2.5 mass % (with respect to the amount of the fermentation medium), statically cultured at 40° C., and fermented. The fermentation time was the time required for the medium to reach pH 4.6. The pH value was measured using a commercially available pH meter.

[6] = test system: Lactobacillus delbrueckii subsp. bulgaricus; assay: Test Example 2-2: organic acid concentration in fermentate at completion of fermentation, formic acid medium; format: cell-based; conditions: 1 mM additive, 1 mM formic acid medium
Procedure: as §2, with “6” for “13”, “7” for “14”, “formic” for “inosinic”

[7] = test system: Lactobacillus delbrueckii subsp. bulgaricus OLL1073R-1; assay: Test Example 9: EPS production during culture; format: cell-based; conditions: 4 mM added; strain OLL1073R-1; 37° C.; compared with the control
Procedure: Frozen bacteria of Lactobacillus delbrueckii subsp. bulgaricus OLL1073R-1 were prepared.
Raw material components other than anhydrous crystalline glucose were dissolved in Elix water, the mixture was adjusted to pH 6.65 using sodium hydroxide, and then diluted in measuring flask to 70 wt % of the charge amount of the medium. Anhydrous crystalline glucose was dissolved in Elix water, and diluted in measuring flask to 30 wt % of the charge amount of the medium.
In addition, the raw material components other than sugar solution and sugar were sterilized separately by heating at 110° C. for 1 minute in an autoclave and then aseptically mixed and used.
An aliquot of 1.5 kg of the above medium was adjusted to pH 5.4 using 6 N potassium carbonate, to the medium, 0.30 mass % of frozen bacteria (with respect to the amount of medium) was inoculated, and the bacteria were cultured at 37° C. while top ventilating with nitrogen at a flow rate of 0.5 L/min and stirring under the condition of 150 rpm.
The EPS concentration was measured under the following conditions. […]
The supernatant was removed by centrifuging (4° C., 13400 g, 20 min), and 20 ml of cooled 66% ethanol was added thereto to suspend the precipitate. […] The EPS concentration of the analysis sample was measured by the phenol-sulfuric acid method.

[8] = No addition of L. delbrueckii subsp. bulgaricus

Row | Structure (SMILES) | Concentration of fumaric acid [1] | Concentration of malic acid [1] | Concentration of succinic acid [1] | Concentration of fumaric acid ([2]; 1 mM added) | Concentration of malic acid ([2]; 1 mM added) | Concentrations at which a fermentation promoting effect was confirmed [3] | Concentration of malic acid [5, 8] | Concentration of succinic acid [5, 8] | Concentration of succinic acid in fermentate at completion of fermentation (pH 4.6) ([5]; strain 0LL1171) | Concentration of succinic acid in fermentate at completion of fermentation (pH 4.6) ([5]; strain 2038) | Concentration of succinic acid in fermentate at completion of fermentation (pH 4.6) ([5]; strain OLL1073R-1) | Concentration of succinic acid in fermentate at completion of fermentation (pH 4.6) ([5]; strain OLL1247) | Concentration of succinic acid in fermentate at completion of fermentation (pH 4.6) ([5]; strain OLL1255) | Concentration of succinic acid in fermentate at completion of fermentation (pH 4.6) ([5]; strain OLL205013) | Concentration of succinic acid in fermentate at completion of fermentation (pH 4.6) ([5]; strain P1902901) | Concentration of malic acid [6, 8] | Concentration of succinic acid [6, 8] | Concentration of succinic acid in fermentate at completion of fermentation (pH 4.6) ([6]; strain 2038) | Concentration of succinic acid in fermentate at completion of fermentation (pH 4.6) ([6]; strain OLL1073R-1) | Concentration of succinic acid in fermentate at completion of fermentation (pH 4.6) ([6]; strain OLL1171) | other results
1 | O=C(O)/C=C/C(=O)O [Fumaric acid, fumaric acid] | 0.62 mM | 0.51 mM | 0.29 mM | 0.00 mM | 0.00 mM | 0.01 to 2.5 mM | 0.13 mM | 0.06 mM | 1.43 mM | 1.43 mM | 1.52 mM | 1.57 mM | 1.49 mM | 1.60 mM | 1.40 mM | 0.11 mM | 0.07 mM | 1.67 mM | 1.73 mM | 1.58 mM | Concentration of succinic acid [4]: 1.39 mM; Concentration of fumaric acid [5, 8]: 1.12 mM; Concentration of fumaric acid [6, 8]: 1.11 mM; Concentration of succinic acid in fermentate at completion of fermentation (pH 4.6) ([6]; strain OLL1247): 1.72 mM; Concentration of fumaric acid in fermentate at completion of fermentation (pH 4.6) ([6]; strain OLL1255): 0.15 mM; Concentration of succinic acid in fermentate at completion of fermentation (pH 4.6) ([6]; strain OLL1255): 1.49 mM; Concentration of succinic acid in fermentate at completion of fermentation (pH 4.6) ([6]; strain OLL205013): 1.54 mM; Concentration of succinic acid in fermentate at completion of fermentation (pH 4.6) ([6]; strain P1902901): 1.59 mM; EPS concentration with the culturing time (FIG. 1) [7]: higher concentration compared with the control
2 | O=C(O)CC(O)C(=O)O (centres unmarked) [Malic acid, malic acid] | 0.35 mM | 0.75 mM | 0.28 mM | 0.00 mM | 0.00 mM | 0.01 to 50 mM | 1.06 mM | 0.06 mM | 1.40 mM | 1.40 mM | 1.50 mM | 1.53 mM | 1.46 mM | 1.53 mM | 1.38 mM | 0.99 mM | 0.08 mM | 1.71 mM | 1.67 mM | 1.57 mM | Concentration of succinic acid ([2]; 1 mM added): 1.94 mM; Concentration of fumaric acid ([2]; 10 mM added): 0.03 mM; Concentration of malic acid ([2]; 10 mM added): 4.27 mM; Concentration of succinic acid ([2]; 10 mM added): 5.78 mM; Concentration of fumaric acid ([2]; 50 mM added): 0.21 mM; Concentration of malic acid ([2]; 50 mM added): 42.05 mM; Concentration of succinic acid ([2]; 50 mM added): 9.84 mM; Concentration of succinic acid in fermentate at completion of fermentation (pH 4.6) ([6]; strain OLL1247): 1.67 mM; Concentration of malic acid in fermentate at completion of fermentation (pH 4.6) ([6]; strain OLL1255): 0.35 mM; Concentration of succinic acid in fermentate at completion of fermentation (pH 4.6) ([6]; strain OLL1255): 1.03 mM; Concentration of succinic acid in fermentate at completion of fermentation (pH 4.6) ([6]; strain OLL205013): 1.55 mM; Concentration of succinic acid in fermentate at completion of fermentation (pH 4.6) ([6]; strain P1902901): 1.59 mM; EPS concentration with the culturing time (FIG. 1) [7]: higher concentration compared with the control
